Test results as given in US8609616B2, “Strontium-containing compounds for use in the prevention or treatment of necrotic bone conditions” (Osteologix A/S, priority 2004, dated 2013).

Test system: animal model of osteonecrosis
Assay: Effect of strontium malonate in an animal model of osteonecrosis (necrotic bone graft in titanium chamber, histology)
Assay type: in vivo, rat
Details: male Sprague-Dawley rats, necrotic bone graft in tibia, 1.6 g/l in drinking water ad libitum (approx. 120 mg strontium malonate/day), 6 weeks; mean (±SD); p=0.038 vs calcium malonate control 2.24 (±1.00)
Text: The rationale for the study was to assess the ability of strontium to act as a therapeutic and bone growth promoting (i.e. pro-anabolic) agent in an animal model of osteonecrosis. […] The necrotic graft was degraded, while ingrowth of new bone occurred. At termination of the experiment, the structural grafts was removed and analyzed by histology to quantify both the degradation of the necrotic graft as well as ingrowth of new bone. Concomitant treatment with anabolic and/or anti-resorptive agents may be given after the insertion of the necrotic graft, and the effect monitored after termination of the experiment. This rat model has previously been described (Astrand J, Aspenberg P. BMC Musculoskelet Disord. 2002; 3(1):19).
The salts were prepared in a solution of 1.6 g/l, which is close to saturation (22-25° C.). Thus extensive stirring was required to completely dissolve the substances. A new batch of drinking water was prepared fresh every week for the duration of the experiment. When not in use the solution was stored at room temperature in a closed container. […]
After careful removal from the titanium chamber, the grafts were decalcified in 10% formic acid, 2% formaldehyde for 14 days. […] Each section was subsequently stained with hematoxylin and eosin, and visually scored for appearance of degradation of the necrotic graft as well as ingrowth of new bone.

O=C([O-])CC(=O)[O-].[Sr+2] [strontium malonate]
average ingrowth of new bone (ingrowth distance): 3.43 (±1.35 (SD)) mm
